Test results: patent US20160122307A1, “PERHYDROQUINOXALINE DERIVATIVES” (DR. AUGUST WOLFF GMBH & CO. KG ARZNEIMITTEL, priority 2013, published 2016)
Read-outs that look alike come from different tables or passages of the source.

Target: Human opiate κ receptors (Homo sapiens, UniProt P41145)
Assay: κ opioid receptor functional assay, [35S]GTPγS binding (assay C)
Type: biochemical
Details: for activation at 1 µM: 0.5 h, read-out: % activation functional assay at 1 μM

Chain of Human opiate κ receptors (P41145 whole entry): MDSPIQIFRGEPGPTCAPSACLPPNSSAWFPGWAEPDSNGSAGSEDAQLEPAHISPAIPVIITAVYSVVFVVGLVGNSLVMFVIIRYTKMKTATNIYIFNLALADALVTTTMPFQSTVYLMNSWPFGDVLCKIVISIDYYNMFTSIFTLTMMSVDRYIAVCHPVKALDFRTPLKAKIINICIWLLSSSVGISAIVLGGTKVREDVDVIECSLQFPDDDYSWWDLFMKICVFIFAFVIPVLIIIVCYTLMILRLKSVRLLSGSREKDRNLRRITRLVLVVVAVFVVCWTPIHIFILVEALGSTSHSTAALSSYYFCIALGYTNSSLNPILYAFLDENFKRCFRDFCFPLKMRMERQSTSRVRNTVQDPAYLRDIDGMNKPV

O=C(Cc1ccc(Cl)c(Cl)c1)N1CCN(Cc2cccnc2)C2CCCC(N3CCC(O)C3)C21 (mixture of isomers) [AC, reference compound]
activation (% of control) at 1 μM: 102 % of control | EC50 (EC50 (nM) [35S]GTPγS binding): 77 nM

O=C(O)CC(=O)N1CCN(C(=O)Cc2ccc(Cl)c(Cl)c2)C2C(N3CCC(O)C3)CCCC21 (mixture of isomers) [T, reference compound]
activation (% of control) at 1 μM: 11 % of control | activation of the kappa opioid receptors at 1 μM: no or little activation | EC50 (EC50 (nM) [35S]GTPγS binding): > 1000 nM

O=C(O)CC(=O)N1CCN(C(=O)Cc2ccc(Cl)c(Cl)c2)C2C(N3CCCC3)CCCC21 (racemic) [AD, reference compound]
activation (% of control) at 1 μM: 22 % of control | activation of the kappa opioid receptors at 1 μM: no or little activation | EC50 (read-out: EC50 (nM) [35S]GTPγS binding): > 1000 nM | EC50 (read-out: EC50 kappa opioid receptor activation): > 1000 nM

O=C(O)CCC(=O)N1CCN(C(=O)Cc2ccc(Cl)c(Cl)c2)[C@H]2[C@H]1CCC[C@@H]2N1CCCC1 (racemic) [AE, reference compound]
activation (% of control) at 1 μM: 43 % of control | activation of the kappa opioid receptors at 1 μM: no or little activation | EC50 (EC50 (nM) [35S]GTPγS binding): > 1000 nM

COC(=O)N1CCN(C(=O)Cc2ccc(Cl)c(Cl)c2)[C@@H]2[C@@H](N3CCCC3)CCC[C@@H]21 (racemic) [Example 1]
activation (% of control) at 1 μM: 109 % of control | activation at 1 µM: 109%

COC(=O)N1CCN(C(=O)Cc2cccc([N+](=O)[O-])c2)C2C(N3CCCC3)CCCC21 (racemic) [Example 3]
activation at 1 µM: 105% | EC50 (GTPγS EC50 (nM)): 10 to 100 nM

COC(=O)N1CCN(C(=O)Cc2ccc(C(F)(F)F)cc2)C2C(N3CCCC3)CCCC21 (racemic) [Example 5]
activation at 1 µM: 105% | EC50 (GTPγS EC50 (nM)): < 10 nM

COC(=O)N1CCN(C(=O)Cc2ccc3c(c2)CCCC3)C2C(N3CCCC3)CCCC21 (racemic) [Example 6]
activation at 1 µM: 97% | EC50 (GTPγS EC50 (nM)): 10 to 100 nM

COC(=O)N1CCN(C(=O)Cc2cc(Cl)c3c(c2)OCCO3)C2C(N3CCCC3)CCCC21 (racemic) [Example 7]
activation at 1 µM: 101% | EC50 (GTPγS EC50 (nM)): 10 to 100 nM

COC(=O)N1CCN(C(=O)Cc2ccc(Cl)s2)C2C(N3CCCC3)CCCC21 (racemic) [Example 8]
activation at 1 µM: 97% | EC50 (GTPγS EC50 (nM)): 10 to 100 nM

COC(=O)N1CCN(C(=O)Cc2ccc3ccccc3c2)C2C(N3CCCC3)CCCC21 (racemic) [Example 10]
activation at 1 µM: 100% | EC50 (GTPγS EC50 (nM)): 10 to 100 nM

COC(=O)N1CCN(C(=O)Cc2ccc(Cl)c(Cl)c2)C2C(N3CC=CCC3)CCCC21 (racemic) [Example 12]
activation at 1 µM: 96% | EC50 (GTPγS EC50 (nM)): 10 to 100 nM

COC(=O)N1CCN(C(=O)Cc2ccc(Cl)c(Cl)c2)C2C1CCCC2N(C)C(C)C (racemic) [Example 13]
activation at 1 µM: 98% | EC50 (GTPγS EC50 (nM)): < 10 nM

COC(=O)N1CCN(C(=O)Cc2ccc(C(F)(F)F)cc2)C2C1CCCC2N(C)C(C)C (racemic) [Example 14]
activation at 1 µM: 104% | EC50 (GTPγS EC50 (nM)): < 10 nM

O=C(Cc1ccc(Cl)c(Cl)c1)N1CCN(Cc2ccccc2)[C@H]2CCC[C@H](N3CCCC3)[C@H]21 (racemic) [Example 15]
activation (% of control) at 1 μM: 89 % of control | activation at 1 µM: 89% | EC50 (EC50 (nM) [35S]GTPγS binding): 7.39 nM | EC50 (GTPγS EC50 (nM)): < 10 nM

O=C(Cc1ccc(Cl)c(Cl)c1)N1CCN(C(=O)OCc2ccccc2)[C@H]2CCC[C@H](N3CCCC3)[C@H]21 (racemic) [Example 16]
activation at 1 µM: 102% | EC50 (GTPγS EC50 (nM)): < 10 nM

COC(=O)N1CCN(C(=O)Cc2ccc(F)c(F)c2)C2C(N3CCCC3)CCCC21 (racemic) [Example 18]
activation at 1 µM: 112% | EC50 (GTPγS EC50 (nM)): < 10 nM

COC(=O)N1CCN(C(=O)Cc2ccc(Cl)c(F)c2)C2C(N3CCCC3)CCCC21 (racemic) [Example 19]
activation at 1 µM: 100% | EC50 (GTPγS EC50 (nM)): < 10 nM

COC(=O)N1CCN(C(=O)Cc2ccc(F)c(Cl)c2)C2C(N3CCCC3)CCCC21 (racemic) [Example 20]
activation at 1 µM: 96% | EC50 (GTPγS EC50 (nM)): < 10 nM

COC(=O)N1CCN(C(=O)Cc2ccc(F)c(OC)c2)C2C(N3CCCC3)CCCC21 (racemic) [Example 21]
activation at 1 µM: 103% | EC50 (GTPγS EC50 (nM)): 10 to 100 nM

COC(=O)N1CCN(C(=O)Cc2ccc(OC)c(F)c2)C2C(N3CCCC3)CCCC21 (racemic) [Example 22]
activation at 1 µM: 78% | EC50 (GTPγS EC50 (nM)): 100 to 1000 nM

CS(=O)(=O)N1CCN(C(=O)Cc2ccc(Cl)c(Cl)c2)C2C(N3CCCC3)CCCC21 (racemic) [Example 23]
activation at 1 µM: 91% | EC50 (GTPγS EC50 (nM)): < 10 nM

CC(C)(C)OC(=O)N1CCN(C(=O)Cc2ccc(Cl)c(Cl)c2)[C@@H]2[C@@H](N3CCCC3)CCC[C@@H]21 (racemic) [Example 24]
activation at 1 µM: 105% | EC50 (GTPγS EC50 (nM)): < 10 nM

CCC(=O)N1CCN(C(=O)Cc2ccc(Cl)c(Cl)c2)C2C(N3CCCC3)CCCC21 (racemic) [Example 25]
activation (% of control) at 1 μM: 102 % of control | activation at 1 µM: 102% | EC50 (EC50 (nM) [35S]GTPγS binding): 2.55 nM | EC50 (GTPγS EC50 (nM)): < 10 nM

CC(C)C(=O)N1CCN(C(=O)Cc2ccc(Cl)c(Cl)c2)C2C(N3CCCC3)CCCC21 (racemic) [Example 26]
activation at 1 µM: 119% | EC50 (GTPγS EC50 (nM)): < 10 nM

O=C(C1CCC1)N1CCN(C(=O)Cc2ccc(Cl)c(Cl)c2)C2C(N3CCCC3)CCCC21 (racemic) [Example 27]
activation at 1 µM: 103% | EC50 (GTPγS EC50 (nM)): < 10 nM

O=C(C1CC1)N1CCN(C(=O)Cc2ccc(Cl)c(Cl)c2)C2C(N3CCCC3)CCCC21 (racemic) [Example 28]
activation at 1 µM: 111% | EC50 (GTPγS EC50 (nM)): < 10 nM

O=C(c1ccco1)N1CCN(C(=O)Cc2ccc(Cl)c(Cl)c2)C2C(N3CCCC3)CCCC21 (racemic) [Example 29]
activation at 1 µM: 96%

O=C(c1cccs1)N1CCN(C(=O)Cc2ccc(Cl)c(Cl)c2)C2C(N3CCCC3)CCCC21 (racemic) [Example 30]
activation at 1 µM: 110%

O=C(c1ccccc1)N1CCN(C(=O)Cc2ccc(Cl)c(Cl)c2)C2C(N3CCCC3)CCCC21 (racemic) [Example 31]
activation (% of control) at 1 μM: 93 % of control | activation at 1 µM: 93%

O=C(c1ccccn1)N1CCN(C(=O)Cc2ccc(Cl)c(Cl)c2)C2C(N3CCCC3)CCCC21 (racemic) [Example 32]
activation at 1 µM: 88%

CN(C)C(=O)N1CCN(C(=O)Cc2ccc(Cl)c(Cl)c2)C2C(N3CCCC3)CCCC21 (racemic) [Example 34]
activation at 1 µM: 107% | EC50 (GTPγS EC50 (nM)): 10 to 100 nM

CN(C)S(=O)(=O)N1CCN(C(=O)Cc2ccc(Cl)c(Cl)c2)C2C(N3CCCC3)CCCC21 (racemic) [Example 35]
activation at 1 µM: 108% | EC50 (GTPγS EC50 (nM)): < 10 nM

COC(=O)CC(=O)N1CCN(C(=O)Cc2ccc(Cl)c(Cl)c2)C2C(N3CCCC3)CCCC21 (racemic) [Example 36]
activation (% of control) at 1 μM: 93 % of control | activation at 1 µM: 93% | EC50 (EC50 (nM) [35S]GTPγS binding): 9.74 nM | EC50 (GTPγS EC50 (nM)): < 10 nM

O=C(O)CC(=O)N1CCN(C(=O)Cc2ccc(Cl)c(Cl)c2)C2C(N3CCCC3)CCCC21 (racemic) [Example 37]
activation (% of control) at 1 μM: 87 % of control | activation at 1 µM: 87% | EC50 (EC50 kappa opioid receptor activation): 22 nM | EC50 (GTPγS EC50 (nM)): 10 to 100 nM

O=C(N1CCCC1)N1CCN(C(=O)Cc2ccc(Cl)c(Cl)c2)C2C(N3CCCC3)CCCC21 (racemic) [Example 38]
activation at 1 µM: 109% | EC50 (GTPγS EC50 (nM)): 10 to 100 nM

CCNC(=O)N1CCN(C(=O)Cc2ccc(Cl)c(Cl)c2)C2C(N3CCCC3)CCCC21 (racemic) [Example 40]
activation at 1 µM: 96% | EC50 (GTPγS EC50 (nM)): < 10 nM

CC(C)NC(=O)N1CCN(C(=O)Cc2ccc(Cl)c(Cl)c2)C2C(N3CCCC3)CCCC21 (racemic) [Example 42]
activation at 1 µM: 96% | EC50 (GTPγS EC50 (nM)): < 10 nM

O=C(Nc1ccccc1)N1CCN(C(=O)Cc2ccc(Cl)c(Cl)c2)C2C(N3CCCC3)CCCC21 (racemic) [Example 43]
activation at 1 µM: 107% | EC50 (GTPγS EC50 (nM)): < 10 nM

CCN(C)C1CCCC2C1N(C(=O)Cc1ccc(Cl)c(Cl)c1)CCN2C(=O)OC (racemic) [Example 45]
activation at 1 µM: 91% | EC50 (GTPγS EC50 (nM)): < 10 nM

COC(=O)N1CCN(C(=O)Cc2cccc(Cl)c2)C2C(N3CCCC3)CCCC21 (racemic) [Example 46]
activation at 1 µM: 96% | EC50 (GTPγS EC50 (nM)): < 10 nM

COC(=O)N1CCN(C(=O)Cc2ccc(Cl)cc2)C2C(N3CCCC3)CCCC21 (racemic) [Example 47]
activation at 1 µM: 101% | EC50 (GTPγS EC50 (nM)): < 10 nM

O=C(Cc1ccc(Cl)c(Cl)c1)N1CCN(Cc2cccnc2)C2CCCC(N3CCCC3)C21 (racemic) [Example 48]
activation (% of control) at 1 μM: 100 % of control | activation at 1 µM: 100% | EC50 (EC50 (nM) [35S]GTPγS binding): 4.99 nM | EC50 (GTPγS EC50 (nM)): < 10 nM

O=C(Cc1ccc(Cl)c(Cl)c1)N1CCN(Cc2cnc[nH]2)C2CCCC(N3CCCC3)C21 (racemic) [Example 49]
activation (% of control) at 1 μM: 112 % of control | activation at 1 µM: 112% | EC50 (EC50 (nM) [35S]GTPγS binding): 6.65 nM | EC50 (GTPγS EC50 (nM)): < 10 nM

COC(=O)N1CCN(C(=O)Cc2ccc(C(F)(F)F)c(Cl)c2)C2C(N3CCCC3)CCCC21 (racemic) [Example 50]
activation at 1 µM: 118% | EC50 (GTPγS EC50 (nM)): < 10 nM

O=C(C1CCCC1)N1CCN(C(=O)Cc2ccc(Cl)c(Cl)c2)C2C(N3CCCC3)CCCC21 (racemic) [Example 51]
activation at 1 µM: 97% | EC50 (GTPγS EC50 (nM)): < 10 nM

O=C(C1COC1)N1CCN(C(=O)Cc2ccc(Cl)c(Cl)c2)C2C(N3CCCC3)CCCC21 (racemic) [Example 54]
activation at 1 µM: 104% | EC50 (GTPγS EC50 (nM)): 10 to 100 nM

CC(=O)OCC(=O)N1CCN(C(=O)Cc2ccc(Cl)c(Cl)c2)C2C(N3CCCC3)CCCC21 (racemic) [Example 58]
activation at 1 µM: 96% | EC50 (GTPγS EC50 (nM)): 10 to 100 nM

O=C(CO)N1CCN(C(=O)Cc2ccc(Cl)c(Cl)c2)C2C(N3CCCC3)CCCC21 (racemic) [Example 59]
activation at 1 µM: 109% | EC50 (GTPγS EC50 (nM)): 10 to 100 nM

CNC(=O)N1CCN(C(=O)Cc2ccc(Cl)c(Cl)c2)C2C(N3CCCC3)CCCC21 (racemic) [Example 62]
activation at 1 µM: 104% | EC50 (GTPγS EC50 (nM)): 10 to 100 nM

COC(=O)C(=O)N1CCN(C(=O)Cc2ccc(Cl)c(Cl)c2)C2C(N3CCCC3)CCCC21 (racemic) [Example 65]
activation at 1 µM: 104% | EC50 (GTPγS EC50 (nM)): < 10 nM

NC(=O)C(=O)N1CCN(C(=O)Cc2ccc(Cl)c(Cl)c2)C2C(N3CCCC3)CCCC21 (racemic) [Example 66]
activation at 1 µM: 100% | EC50 (GTPγS EC50 (nM)): 10 to 100 nM
